Source: patent US4874752A, “Benzoquinone derivatives and production thereof” (Takeda Chemical Industries, Ltd., priority 1982, dated 1989)
Values belong to the compound of their own block, whether it stands above or below them.

Assays:
[1] = target: T1, 5-lipoxygenase (Rattus norvegicus, UniProt P12527); test: Inhibition of 5-lipoxygenase activity in RBL-1 cells (5-HETE production); format: cell-based; settings: 37° C., 20 minutes, arachidonic acid + A-23187
T1 construct: endogenous in cells; host or cells: RBL-1
T1 sequence (P12527 1-673): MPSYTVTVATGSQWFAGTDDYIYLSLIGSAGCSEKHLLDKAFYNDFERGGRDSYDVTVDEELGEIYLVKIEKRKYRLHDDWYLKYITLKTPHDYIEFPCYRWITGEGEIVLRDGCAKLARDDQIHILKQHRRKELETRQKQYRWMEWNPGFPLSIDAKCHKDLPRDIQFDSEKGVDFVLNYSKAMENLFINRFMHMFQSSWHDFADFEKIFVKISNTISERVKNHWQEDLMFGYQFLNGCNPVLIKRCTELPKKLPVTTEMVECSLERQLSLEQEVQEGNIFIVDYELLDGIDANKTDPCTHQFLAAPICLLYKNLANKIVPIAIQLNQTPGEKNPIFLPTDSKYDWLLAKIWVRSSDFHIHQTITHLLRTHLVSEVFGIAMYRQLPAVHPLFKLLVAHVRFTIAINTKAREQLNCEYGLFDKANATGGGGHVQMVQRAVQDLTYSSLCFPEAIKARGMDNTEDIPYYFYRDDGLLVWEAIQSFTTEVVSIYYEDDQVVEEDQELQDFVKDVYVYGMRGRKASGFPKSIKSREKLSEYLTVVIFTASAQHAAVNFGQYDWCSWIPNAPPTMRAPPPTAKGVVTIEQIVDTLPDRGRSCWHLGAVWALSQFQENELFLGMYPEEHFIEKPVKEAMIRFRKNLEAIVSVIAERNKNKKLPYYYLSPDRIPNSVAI
Description: 10^7 RBL-1 cells (rat basophilic leukemia cells) are suspended in 0.5 ml of MCM (mast cell medium), and, then, a test solution (0.5 ml of MCM, 50 μg of arachidonic acid, 10 μg of A-23187 and 1 μM or 10 μM of the quinone compound) is added. The reaction is conducted at 37° C. for 20 minutes. After completion of the reaction, 4 ml of ethanol including 1,4-dimethoxy-2-methyl-3-(3-methoxypropyl)naphthalene are added (0.5 μg/ml) are added as an internal reference. After shaking well, the mixture is allowed to stand at room temperature for 10 minutes. Then, the mixture was centrifuged (2000 r.p.m./min.) for 10 minutes and the supernatant is separated. This supernatant is concentrated under reduced pressure to about 200 μl. To the concentrate is added a high performance liquid chromatography solvent [CH3 CN(1500): CH3 OH(500): water (1100): acetic acid(2); pH 5.6 (adjusted with aqueous ammonia)] to make a total of 1 ml. A 200 μl portion of this solution is taken and 5-HETE (5-hydroxyeicosatetraenoic acid) is assayed by high performance liquid chromatography. The degree of inhibition of 5-HETE production (IE) is expressed in terms of […], where a is the peak height or area after correction with the peak of the internal reference standard in the absence of the quinone compound and b is the peak height or area after correction with the peak of the internal reference standard in the presence of the quinone compound.

[2] = tested on: collagen biosynthesis; test: Inhibitory activity of collagen biosynthesis (collagen content of the uterus, with 17β-estradiol); format: in vivo, SD strain rats (female, 3 weeks old); settings: for Degree of inhibition: uterus collagen
Description: In accordance with the method of R. A. Salvador et al. [Arch. Biochem. Biophys. 174, 382 (1976)], 0.2 mg/kg of each test compound was intraperitoneally administered to SD strain rats (.female., 3 weeks old) once a day for 6 days. After that, the collagen content of the uterus was determined and compared with that of control experiment.
*Rats were used 3 animals as one group; initial body weights 41 ± 2- 4

[3] = 17β-estradiol + compound, 0.2 mg/kg i.p. once a day for 6 days

SMILES: COC1=C(OC)C(=O)C(CCCCOc2ccc(/C=C/C(=O)O)cc2)=C(C)C1=O
inhibition at 1 µM [1]: 72%
inhibition at 10 µM [1]: 83.1%

SMILES: C[C@]12CC[C@@H]3c4ccc(O)cc4CC[C@H]3[C@@H]1CC[C@@H]2O [17β-estradiol, reference compound]
Collagen content of uterus ([2]; 17β-estradiol alone): 3.45 ± 0.11 mg
Body weight of rats ([2]; 17β-estradiol alone, 3 rats per group, initial body weight about 41 g): 73 ± 3 g

SMILES: COC1=C(OC)C(=O)C(/C=C/C(=O)O)=C(C)C1=O [drawing 30]
Collagen content of uterus [2, 3]: 2.53 ± 0.28 mg
Degree of inhibition [2, 3]: 51%

SMILES: COC1=C(OC)C(=O)C(/C=C/C(C)=O)=C(C)C1=O [drawing 31]
Collagen content of uterus [2, 3]: 2.98 ± 0.15 mg
Degree of inhibition [2, 3]: 26%

SMILES: COC1=C(OC)C(=O)C(COc2ccc(/C=C/C(=O)O)cc2)=C(C)C1=O [drawing 32]
Collagen content of uterus [2, 3]: 2.77 ± 0.25 mg
Degree of inhibition [2, 3]: 38%

SMILES: COC1=C(OC)C(=O)C(CCCCCCCCCC(=O)N[C@@H](CCCNC(=N)N)C(=O)O)=C(C)C1=O [n: 9, Z:CONHArg, 10-(2,3-dimethoxy-5-methyl-1,4-benzoquinon-6-yl)decanoyl-L-arginine]
Collagen content of uterus [2, 3]: 2.86 ± 0.75 mg
Degree of inhibition [2, 3]: 33%

Results, then the compound that gave them:

inhibition at 1 µM [1]: 76.6%
inhibition at 10 µM [1]: 85.8%
SMILES: COC1=C(OC)C(=O)C(CC=C(C)COc2ccc(/C=C/C(=O)O)cc2)=C(C)C1=O

inhibition at 1 µM [1]: 70.1%
inhibition at 10 µM [1]: 81.5%
SMILES: COC1=C(C)C(=O)C(COc2ccc(CC(=O)O)cc2)=C(C)C1=O

inhibition at 1 µM [1]: 63.5%
inhibition at 10 µM [1]: 79.2%
SMILES: CC1=C(C)C(=O)C(c2nc3cc(C(C)C(=O)O)ccc3o2)=C(C)C1=O (centres unmarked)

inhibition at 1 µM [1]: 21.8%
inhibition at 10 µM [1]: 39.1%
SMILES: NC1=NN(c2cccc(C(F)(F)F)c2)CC1 [BW755C, reference compound]

inhibition at 1 µM [1]: 35.9%
inhibition at 10 µM [1]: 39.4%
SMILES: CCCCCC#CCC#CCC#CCC#CCCCC(=O)O [ETYA, Eicosatetraynoic acid, reference compound]

inhibition at 1 µM [1]: 73.9%
inhibition at 10 µM [1]: 83.5%
SMILES: COC1=C(OC)C(=O)C(COc2ccc(/C=C/C(=O)O)cc2)=C(C)C1=O [drawing 37]

inhibition at 1 µM [1]: 72.2%
inhibition at 10 µM [1]: 83.3%
SMILES: COC1=C(OC)C(=O)C(CC=C(C)COc2ccc(CC(=O)O)cc2)=C(C)C1=O [drawing 38]
